SMILES strings stand for the structures.

The test concerns AMPK. The test is described as follows: AMPK activation assay (enzyme-linked immunosorbent assay). Type of test: cell-based. Summed up:
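Read-out: immunodetected kinase activation after compound exposure, run with commercial kit reagents.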
For `COc1ccc(CN2CCC(NC(=O)c3ccc(C(=O)N4CCC(C(=O)c5ccc(N6CCCC6)cc5)CC4)nc3)CC2)cc1F` [Compound 443, N-(1-(3-fluoro-4-methoxybenzyl)piperidin-4-yl)-6-(4-(4-(pyrrolidin-1-yl)benzoyl)piperidine-1-carbonyl)nicotinamide], the EC50 was under 500 nM.
`COc1ccc(C(=O)C2CCN(C(=O)c3ccc(C(=O)NC4CCN(Cc5ccc(C#N)cc5)CC4)nc3)CC2)cc1` [Compound 129, N-(1-(4-cyanobenzyl)piperidin-4-yl)-5-(4-(4-methoxybenzoyl)piperidine-1-carbonyl)picolinamide]: the EC50 is under 500 nM.
`O=C(NC1CCN(c2ccc(F)cc2)CC1)c1ccc(C(=O)N2CCN(Cc3ccc(F)cc3)CC2)nc1` [Compound 404, 6-(4-(4-fluorobenzyl)piperazine-1-carbonyl)-N-(1-(4-fluorophenyl)piperidin-4-yl)nicotinamide]: the EC50 fell in the range of 1000 to 5000 nM.
The figure for `N#Cc1ccc(CN2CC[C@H](NC(=O)c3ccc(C(=O)N4CCN(Cc5ccc(F)cc5)CC4)cn3)C2)cc1` [Compound 123, (S)-N-(1-(4-cyanobenzyl)pyrrolidin-3-yl)-5-(4-(4-fluorobenzyl)piperazine-1-carbonyl)picolinamide] is under 500 nM; for `COc1ccc(C(=O)C2CCN(C(=O)c3ccc(C(=O)N[C@@H]4CCN(Cc5ccc(OC(C)C)cc5)C[C@H]4F)cn3)CC2)cc1` (relative stereo) [Compound 353, N-((trans)-3-fluoro-1-(4-isopropoxybenzyl)piperidin-4-yl)-6-(4-(4-methoxybenzoyl)piperidine-1-carbonyl)nicotinamide] it is under 500 nM; for `O=C(c1cccc(C(=O)N2CCN(c3ccccc3)CC2)n1)N1CCN(Cc2ccc(F)cc2)CC1` [Compound 94, (4-(4-fluorobenzyl)piperazin-1-yl)(6-(4-phenylpiperazine-1-carbonyl)pyridin-2-yl)methanone] it is over 10000 nM.
With `N#Cc1ccc(CN2CCC(NC(=O)c3ccc(C(=O)N4CCNCC4)cn3)CC2)cc1` [Compound 2, N-(1-(4-cyanobenzyl)piperidin-4-yl)-5-(piperazine-1-carbonyl)picolinamide] the figure was over 10000 nM.
As for `CC(=O)c1ccc(Oc2ccc(NC(=O)c3ccc(C(=O)N4CCC(Oc5ccc(S(C)(=O)=O)cc5)CC4)nc3)cn2)cc1` [Compound 485, N-(6-(4-acetylphenoxy)pyridin-3-yl)-6-(4-(4-(methylsulfonyl)phenoxy)piperidine-1-carbonyl)nicotinamide], the 50% effective concentration (EC50) was under 500 nM.
`N#Cc1cccc(Oc2ccc(NC(=O)c3ccc(C(=O)N4CCN(Cc5ccc(F)cc5)CC4)cn3)cn2)c1` [Compound 64, 5-(4-(4-fluorobenzyl)piperazine-1-carbonyl)-(6-(3-cyanophenoxy)pyridin-3-yl)picolinamide] came in with an EC50 of under 500 nM.
Turning to `N#Cc1ccc(CN2CCC(NC(=O)c3ccc(C(=O)N4CCN(S(=O)(=O)c5ccccc5)CC4)cn3)CC2)cc1` [Compound 82, N-(1-(4-cyanobenzyl)piperidin-4-yl)-5-(4-(phenylsulfonyl)piperazine-1-carbonyl)picolinamide], the EC50 lay within 500 to 1000 nM.
The molecule `O=C(c1ccc(C(=O)N2CCN(CCc3ccccc3)CC2)nc1)N1CCN(c2ccccc2)CC1` [Compound 90, (4-phenethylpiperazin-1-yl)(5-(4-phenylpiperazine-1-carbonyl)pyridin-2-yl)methanone] returned a 50% effective concentration (EC50) of over 10000 nM.
For the molecule `N#Cc1ccc(CN2CCC(NC(=O)c3ccc(C(=O)N4CCC(Oc5ccc(NC(=O)CCOCCOCCOCCOCCNC(=O)CCC[C@@H]6SC[C@@H]7NC(=O)N[C@@H]76)cc5)CC4)nc3)CC2)cc1` [Compound 371, N-(1-(4-cyanobenzyl)piperidin-4-yl)-6-(4-(4-(17-oxo-20-((3aS,4S,6aR)-2-oxohexahydro-1H-thieno[3,4-d]imidazol-4-yl)-4,7,10,13-tetraoxa-16-azaicosanamido)phenoxy)piperidine-1-carbonyl)nicotinamide], the EC50 was over 10000 nM.
`CC(=O)c1ccc(OC2CCN(C(=O)c3ccc(C(=O)NC4CCC(Oc5ccc(C#N)cc5)CC4)cn3)CC2)cc1` (stereo not drawn) [Compound 402, 6-(4-(4-acetylphenoxy)piperidine-1-carbonyl)-N-(4-(4-cyanophenoxy)cyclohexyl)nicotinamide] gave an EC50 of under 500 nM.
`CS(=O)(=O)c1ccc(OC2CCN(C(=O)c3ccc(C(=O)Nc4ccc(Oc5ccc(F)cc5)nc4)cn3)CC2)cc1` [Compound 235, N-(6-(4-fluorophenoxy)pyridin-3-yl)-6-(4-(4-(methylsulfonyl)phenoxy)piperidine-1-carbonyl)nicotinamide] showed an EC50 of under 500 nM.
`COc1ccc(CN2CCC(NC(=O)c3ccc(C(=O)N4CCC(Oc5cccc(NC(=O)C6CC6)c5)CC4)nc3)CC2)cc1` [Compound 435, 6-(4-(3-(cyclopropanecarboxamido)phenoxy)piperidine-1-carbonyl)-N-(1-(4-methoxybenzyl)piperidin-4-yl)nicotinamide] had an EC50 of under 500 nM.
Regarding `O=C(NC1CCN(Cc2ccccc2)CC1)c1ccc(C(=O)N2CCN(c3ccccc3)CC2)cn1` [Compound 97, N-(1-benzylpiperidin-4-yl)-5-(4-phenylpiperazine-1-carbonyl)picolinamide], the concentration for a half-maximal effect (EC50) fell in the range of 1000 to 5000 nM.
With `O=C(NC1CCN(Cc2ccccc2)CC1)c1ccc(Nc2cccc(Oc3ccccc3)c2)cn1` [Compound 112, N-(1-benzylpiperidin-4-yl)-5-(3-phenoxyphenylamino)picolinamide] the figure was 1000 to 5000 nM; with `N#Cc1ccc(CN2CCC(NC(=O)c3ccc(C(=O)N4CCN(c5ccc(C(=O)C6CC6)cc5)CC4)cn3)CC2)cc1` [Compound 258, N-(1-(4-cyanobenzyl)piperidin-4-yl)-5-(4-(4-(cyclopropanecarbonyl)phenyl)piperazine-1-carbonyl)picolinamide], under 500 nM.
`N#Cc1ccc(CN2CCC(NC(=O)c3ccc(C(=O)N4CCC(Oc5ccc(N)cc5)CC4)nc3)CC2)cc1` [Compound 364, 6-(4-(4-aminophenoxy)piperidine-1-carbonyl)-N-(1-(4-cyanobenzyl)piperidin-4-yl)nicotinamide] gave an EC50 of under 500 nM.
In turn, `COc1ccc(CN2CCC(NC(=O)c3ccc(C(=O)N4CCC(C(=O)c5ccc(F)cc5F)CC4)nc3)CC2)cc1` [Compound 347, 6-(4-(2,4-difluorobenzoyl)piperidine-1-carbonyl)-N-(1-(4-methoxybenzyl)piperidin-4-yl)nicotinamide] returned an EC50 of under 500 nM.
`COc1ccc(C(=O)C2CCN(C(=O)c3ccc(C(=O)NC4CCN(Cc5cc(F)cc(F)c5)CC4)nc3)CC2)cc1` [Compound 287, N-(1-(3,5-difluorobenzyl)piperidin-4-yl)-5-(4-(4-methoxybenzoyl)piperidine-1-carbonyl)picolinamide] showed an EC50 of under 500 nM.
With `COc1ccc(CN2CCC(NC(=O)c3ccc(C(=O)N4CCC(C(=O)c5ccc(F)c(F)c5)CC4)cn3)CC2)cc1` [Compound 329, 5-(4-(3,4-difluorobenzoyl)piperidine-1-carbonyl)-N-(1-(4-methoxybenzyl)piperidin-4-yl) picolinamide] the figure was under 500 nM.
With `CN(C)C(=O)c1ccc(OC2CCN(C(=O)c3ccc(C(=O)NC4CCN(Cc5ccc(C#N)cc5)CC4)nc3)CC2)cc1` [Compound 357, N-(1-(4-cyanobenzyl)piperidin-4-yl)-5-(4-(4-(dimethylcarbamoyl)phenoxy)piperidine-1-carbonyl)picolinamide] the figure was under 500 nM; with `O=C(Nc1ccc(Oc2ccc(F)cc2)nc1)c1ccc(C(=O)N2CCC(C(=O)c3ccc(N4CCCC4)cc3)CC2)cn1` [Compound 368, N-(6-(4-fluorophenoxy)pyridin-3-yl)-5-(4-(4-(pyrrolidin-1-yl)benzoyl)piperidine-1-carbonyl)picolinamide], under 500 nM; with `COc1ccc(OC2CCN(C(=O)c3ccc(C(=O)NC4CCN(Cc5ccc(C#N)cc5)CC4)cn3)CC2)c(NC(=O)CCOCCOCCOCCOCCNC(=O)CCCC[C@@H]2SC[C@@H]3NC(=O)N[C@@H]32)c1` [Compound 394, N-(1-(4-cyanobenzyl)piperidin-4-yl)-6-(4-(4-methoxy-2-(17-oxo-21-((3aS,4S,6aR)-2-oxohexahydro-1H-thieno[3,4-d]imidazol-4-yl)-4,7,10,13-tetraoxa-16-azahenicosanamido)phenoxy)piperidine-1-carbonyl)nicotinamide], over 10000 nM.
As to `CN1CCN(c2ccc(C(=O)C3CCN(C(=O)c4ccc(C(=O)Nc5ccc(Oc6ccc(F)cc6)nc5)cn4)CC3)cc2)CC1` [Compound 245, N-(6-(4-fluorophenoxy)pyridin-3-yl)-6-(4-(4-(4-methylpiperazin-1-yl)benzoyl)piperidine-1-carbonyl)nicotinamide], the EC50 is under 500 nM.
In turn, `O=C(NC1CCN(Cc2cc(F)cc(F)c2)CC1)c1ccc(C(=O)N2CCC(Oc3ccc(F)c(F)c3)CC2)cn1` [Compound 297, N-(1-(3,5-difluorobenzyl)piperidin-4-yl)-5-(4-(3,4-difluorophenoxy)piperidine-1-carbonyl)picolinamide] displayed an EC50 of under 500 nM.
`O=C(c1ccc(Nc2cccc(-c3ccccc3)c2)nc1)N1CCN(Cc2ccc(F)cc2)CC1` [Compound 33, (6-(3-phenylphenylamino)pyridin-3-yl)(4-(4-fluorobenzyl)piperazin-1-yl)methanone] came in with an EC50 of 5000 to 10000 nM.
`CS(=O)(=O)c1ccc(OC2CCN(C(=O)c3ccc(C(=O)N[C@@H]4CCN(Cc5ccc(OC(F)(F)F)cc5)C[C@H]4F)nc3)CC2)cc1` (relative stereo) [Compound 255, N-((trans)-3-fluoro-1-(4-(trifluoromethoxy)benzyl)piperidin-4-yl)-5-(4-(4-(methylsulfonyl)phenoxy)piperidine-1-carbonyl)picolinamide] yielded an EC50 of under 500 nM.
Turning to `Cc1cc(CN2CCC(NC(=O)c3ccc(C(=O)N4CCN(Cc5ccc(F)cc5)CC4)cn3)CC2)ccc1F` [Compound 50, 5-(4-(4-fluorobenzyl)piperazine-1-carbonyl)-N-(1-(4-fluoro-3-methylbenzyl)piperidin-4-yl)picolinamide], the EC50 is under 500 nM.

For the origin of these results see patent US20150087673A1, “METHODS FOR USING AND BIOMARKERS FOR AMPK-ACTIVATING COMPOUNDS” (RIGEL PHARMACEUTICALS, INC., priority 2013, published 2015).
